Consider five molecules from patent publication US20140235502A1, “METHOD FOR SCREENING AND QUANTIFYING ISOPRENE BIOSYNTHESIS ENZYME ACTIVITY” (Institute of Bioscience and Biotechnology, priority 2013, published 2014).

In test [1] the test system is IspGESS artificial genetic circuit (TbuT regulator). Briefly: Quantitative fluorescence response of pIspGESS-containing recombinant E. coli to added compounds (FACS). As to conditions: for response of IspGESS fluorescence to the compound: 0-2000 μM, FACS; for concentration from which fluorescence started to be sensed: pIspGESS in E. coli DH5α, M9 medium, 30° C. 18 hours, FACS FL1-H. The test is classed as cell-based, E. coli DH5α. The method, then:
In order to examine the isoprene, toluene, benzene and phenol compounds sensing function of pIspGESS-containing recombinant E. coli, pIspGESS of Example 1 was introduced into a single colony of E. coli DH5α (NEB, USA) by heat shock, and then the E. coli colony was inoculated into an LB liquid medium (1% (w/v) trypton, 0.5% (w/v) yeast extract, and 1% (w/v) sodium chloride) supplemented with 50 μg/Ml of ampicillin and was cultured with shaking at 37° C. for 14 hours. The culture was inoculated into M9 minimal medium (containing 50 μg/Ml ampicillin, 4% glucose and 1% thiamine) at a concentration of 1% and then cultured with shaking at 37° C. for 6 hours. Various concentrations (0-2000 μM) of isoprene was added to each of the test tubes containing the culture broth, after then the culture was cultured with shaking at 30° C. for 18 hours, thereby inducing the expression of fluorescence in the culture. The intensity of intracellular fluorescence induced by each concentration of toluene was analyzed by a FACS Calibur system (Becton Dickinson, USA). As a detector, a FSC, SSC, FL1-H (excitation=488 nm, emission=530/30 nm) detector was set, and data obtained by observing 10,000 samples were analyzed using CellQuest Pro (Becton Dickinson, USA).

Test [2] has as its system IspGESS artificial genetic circuit. Put plainly: Detection of isoprene synthase activity with IspGESS, pCDF vector (FACS). The test is classed as cell-based. To be noted: E. coli BL21(DE3), FACS 10,000 cells. How it is done: First, the IspSm1 gene was inserted into the NcoI-AvrII restriction enzyme site of a pCDF-duet vector (Novagen, USA) to prepare pCDF-IspSm1, which was then introduced into an E. coli BL21 (DE3) strain (NEB, USA) containing pIspGESS of […] of ampicillin and 10 μg/Ml of streptomycin were added to LB liquid medium containing 0.1 mM of IPTG (isopropyl-thio-β-Dgalactopyranoside), and E. coli cells were cultured with shaking in the LB liquid medium at 37° C. for 16 hours. Then, the cultured cells were transferred into M9 liquid medium containing 0.1 mM IPTG and were cultured at 28° C. and 200 rpm for 20 hours. […] The intensity of fluorescence in the cultured cells was analyzed using a FACS Calibur system (Becton Dickinson, USA). As a detector, a FSC, SSC, FL1-H (excitation=488 nm, emission=530/30 nm) detector was set, and data obtained by observing 10,000 samples were analyzed.
As a result, 5×10^5 of mutant library was constructed. […] With the criterion for screening, cells showing fluorescence intensity which is at least 50% higher than that of IspSm1 were sorted using a FACScalibur system (Becton Dickinson, USA). Then, 6 clones having higher fluorescence intensity than IspSm1 were isolated.
The activities of the isolated clones were analyzed by a FACS. As detectors, FSC, SSC, FL1-H (excitation=488 nm, emission=530/30 nm) detectors were set, and 10,000 cells were analyzed.

Test [3] has the same test system. Briefly: Detection of isoprene synthase activity with IspGESS, pPROLar vector (FACS, t-test). The test is classed as cell-based. To be noted: E. coli DH5α. How it is done: First, IspSm1 and IspSm2 genes were amplified using PCR with primers (SEQ ID NOS: 13, 14), and inserted into the NdeI-XbaI restriction enzyme site of a pPROLar vector for pPROLar-ispSm1 and pPROLar-ispSm2 (SEQ ID NOS: 15, 16). Then these two vectors were transformed into an E. coli DH5α strain containing IspGESS of Example 1. 50 μg/Ml of ampicillin and 10 μg/Ml of kanamycin were added to LB liquid medium, and E. coli cells were cultured with shaking in the LB liquid medium at 37° C. for 16 hours. 4 Ml of the culture medium was placed in a 10 Ml vial and the cultured bacterial strain was then inoculated at a concentration of 1%. Then, the vial was sealed with a septum and the cells were cultured at 28° C. and 200 rpm for 24 hours. The intensity of fluorescence in the cultured cells was analyzed using a FACScalibur system (Becton Dickinson, USA). As detectors, FSC, SSC, and FL1-H (excitation=488 nm, emission=530/30 nm) detectors were set, and 10,000 samples were analyzed.
To verify the fluorescence differences of IspSm1, IspSm2 and no IspS induction control, the flow cytometry data was analyzed by t-test. The t-test compared the mean values of the fluorescence signals between the negative control (IspGESS without IspSm1 (IspSm2) induction) and the case that includes IspSm1 (IspSm2) inducer. […] Note that there are three replicates of each case (FIG. 8).

As for `C=CC(=C)C` [isoprene], in test [1], the “response of IspGESS fluorescence to the compound” value (“response of IspGESS fluorescence” below) is reported as “increased as the isoprene concentration increased” and the “concentration from which fluorescence started to be sensed” value (shortened to “concentration”) amounted to 50 µM.

`c1ccccc1` [benzene]: in test [1], the “response of IspGESS fluorescence” value is “responded” and the “concentration” value was determined as 1 µM.

Turning to `Cc1ccccc1` [toluene], in test [1], the “response of IspGESS fluorescence” value was “responded” and the “concentration” value was determined as 0.5 µM.

On to `Oc1ccccc1` [phenol], for which, in test [1], the “response of IspGESS fluorescence” value is listed as “responded” and the “concentration” value is 50 µM.

B1: IspSm2: mutant IspSm1 containing L35R (SEQ ID NO: 8), screened from random mutant library (protein)
chain: MACSVSTENVSFTETETETRRSANYEPNSWDYDYRLSSDTDESIEVYKDKAKKLEAEVRREINNEKAEFLTLLELIDNVQRLGLGYRFESDIRRALDRFVSSGGFDAVTKTSLHATALSFRLLRQHGFEVSQEAFSGFKDQNGNFLENLKEDIKAILSLYEASFLALEGENILDEAKVFAISHLKELSEEKIGKDLAEQVNHALELPLHRRTQRLEAVLSIEAYRKKEDADQVLLELAILDYNMIQSVYQRDLRETSRWWRRVGLATKLHFARDRLIESFYWAVGVAFEPQYSDCRNSVAKMFSFVTIIDDIYDVYGTLDELELFTNAVERWDVNAIDDLPDYMKLCFLALYNTINEIAYDNLKEKGENILPYLTKAWADLCNAFLQEAKWLYNKSTPTFDDYFGNAWKSSSGPLQLVFAYFAVVQNIKKEEIENLQKYHDIISRPSHIFRLCNDLASASAEIARGETANSVSCYMRTKGISEELATESVMNLIDETWKKMNKEKLGGSLFAKPFVETAINLARQSHCTYHNGDAHTSPDELTRKRVLSVITEPILPFER
modifications: IspSm2
In the case of B1, the “fluorescence intensity / isoprene synthesis activity compared with IspSm1” value in test [2] is listed as “two times higher”. In addition, in test [3], the “fluorescent mean intensity compared with IspGESS with IspSm1” value is given as “higher” and the “intensity of fluorescence compared with cells containing neither IspSm1 nor IspSm2” value is “higher”.
